Experimental data published in US12390470B2, “1-methylxanthine-based bioactive composition and method of use thereof” (Ingenious Ingredients, LP, priority 2021, dated 2025).

Key:
Format in all cases: in vivo
[1] = Brain weight in young and aged rats
Procedure: (§1) Twenty-four young (6-8 Week) and twenty-four old (14-16 Months) Swiss Albino Wistar rats were housed in an animal room at a constant temperature (22±3° C.) and humidity (30%-70%) under a 12:12 h light-dark cycle with standard laboratory diet (Purina 5L79, Rat and Mouse 18% protein; PMI Nutrition International, Brentwood, MO, USA). Distilled water was provided ad libitum. All animal experiments were reviewed and approved by the Institutional Animal Ethical Committee (IAEC) of Radiant Research Services Pvt. Ltd (Bangalore, India). All research was conducted in accordance with the guidelines of the committee for the purpose of control and supervision of experiments on animals.
(§2) After one week of acclimation, the animals were randomly divided by body weight and age into six groups (n=8 per group in each test) for oral treatment once a day, at approximately same time each day (±1 hour), for 10 consecutive days: (1) vehicle control or (2) 1-methylxanthine or (3) 1-methylxanthine plus paraxanthine. The dose administered to the rat was calculated using US Food and Drug Administration for human equivalence doses (HED), assuming a human weight of 60 kg. […] Food intake was monitored daily while water intake was ad libitum. […] Body weight was recorded weekly. […]

dopamine = test: Dopamine level in young and old rats; details: old rats
Procedure: as §1, §2

male Swiss Albino mice [2] = test: Cook's pole climbing test, scopolamine-induced amnesia
Procedure: Behavioral studies were conducted in mice to examine the learning and memory ability by using Cook's pole and Passive shock avoidance test.
as §1, with “8-week-old male” for “young (6-8 Week) and twenty-four old (14-16 Months)”, “mice” for “Wistar rats”
(§3) After one week of acclimation, the animals were randomly divided by body weight into three groups (n=8 per group in each test) for oral treatment once a day, at approximately same time each day (±1 hour), for 7 consecutive days: (1) vehicle control or (2) 1-methylxanthine or (3) 1-methylxanthine plus paraxanthine. The dose administered to the mice was calculated using US Food and Drug Administration for human equivalence doses (HED), assuming a human weight of 60 kg. The following HED was used in this study: 100 mg 1-methylxanthine (Ingenious Ingredients, L.P Lewisville, TX, USA; mouse dose: 20.5 mg/kg bw/day), or 100 mg 1-methylxanthine (Ingenious Ingredients, L.P Lewisville, TX, USA; mouse dose: 20.5 mg/kg bw/day) plus 100 mg paraxanthine (ENFINITY™, Ingenious Ingredients, L.P Lewisville, TX, USA; mouse dose: 20.5 mg/kg bw/day). 0.5% Carboxy Methyl Cellulose sodium was used as vehicle and the test item formulations were prepared daily. […] Food intake was monitored daily while water intake was ad libitum.
Mice were trained in such a way that the animal had to climb the pole (shock free zone) within 30 seconds to avoid a shock. […] At particular intervals, 20 trials were given for each animal and average of the shock avoidance and mistakes were recorded. […]

male Swiss Albino mice [3] = test: Forelimb grip strength test
Procedure: as §1, with “8-week-old male” for “young (6-8 Week) and twenty-four old (14-16 Months)”, “mice” for “Wistar rats”
as §3, with “28” for “7”, “libitum. BW was recorded weekly. […]” for “libitum.”
The forelimb grip strength was measured on day 0 and day 28 by using a stainless-steel grill to assess muscle strength (Orchid Scientific & Innovative India Pvt Ltd, India). Grip strength was measured one hour after treatment. […] Each animal performed three independent trials and the mean of the three trials was calculated and recorded.

## Cn1c(=O)[nH]c2nc[nH]c2c1=O [1-methylxanthine, 1-Methyl-3H-purine-2,6-dione]
[1]; aged animals
  Brain weight: 2 ± 0.074 g
[1]; young animals
  Brain weight: 1.73 ± 0.027 g
dopamine
  dopamine level: 474.42 ± 13.49 ng/L
Male Swiss Albino mice [2]; Cook's pole
  Escape latency faster than control: 14.9%
Male Swiss Albino mice [2]; mice, oral 7 days, scopolamine
  Escape latency, Cook's pole climbing test: 10.13 ± 0.83 s
Male Swiss Albino mice [2]; summary of Cook's pole and passive shock avoidance tests
  Overall outcome on amnesia, memory and learning: showed reversal of amnesia induced by scopolamine and improved memory and learning
Male Swiss Albino mice [3]; baseline
  Forelimb grip strength: 91.1±1.3 gf
Male Swiss Albino mice [3]; baseline to day 28
  changes in strength greater than control: 15.9%
Male Swiss Albino mice [3]; day 28, oral 20.5 mg/kg bw/day each, 28 days, with exercise training
  Forelimb grip strength: 126.9±6.0 gf
